From ChEMBL document CHEMBL5104192, “Late-Stage Functionalization with Cysteine Staples Generates Potent and Selective Melanocortin Receptor-1 Agonists” (J Med Chem, 2022)
*1 amine or outer side, *2 acyl side, *3 side chain or, on linkers, in order; H or OH if unused. Where a SMILES comes first, the peptide text is derived from it. Bridges are numbered along the chain shown (N, C = ends). [ ]: non-standard residue; d: D form. X9 = O=C(NCCOCCOCCOCCNC(=O)OCC1C2CCc3nnn(CC(=O)N4CCCC[C@H]4C4(O)CN(C(=O)c5ccc(F)c(F)c5Nc5ccc(I)cc5F)C4)c3CCC21)OCC1C2CCc3c([*:1])nnc([*:2])c3CCC21; X8 = NCCNC(=O)OCC1C2CCc3c([*:1])nnc([*:2])c3CCC21; mXylylene = c1cc(C[*:1])cc(C[*:2])c1; oXylylene = c1ccc(C[*:2])c(C[*:1])c1; pXylylene = c1cc(C[*:2])ccc1C[*:1]; NMeR = CN[C@@H](CCCNC(=N)N)C(=O)O; Nle = CCCC[C@H](N)C(=O)O

Legend:
[1] = target: T1, Melanocyte-stimulating hormone receptor (Homo sapiens, UniProt Q01726); assay: Displacement of [125I]-NDP-alpha-MSH from human MC1R expressed in HEK2936E cell membrane measured after 16 to 23 hrs by 1450 microbeta trilux scintillation proximity assay; type: cell membranes
Homo sapiens [2] = species: Homo sapiens; assay: Selectivity ratio of Ki for human MC3R to Ki for human MC1R
Melanocortin receptor 3 [3] = target: T2, Melanocortin receptor 3 (Homo sapiens, UniProt P41968); assay: Displacement of [125I]-NDP-alpha-MSH from human MC3R expressed in HEK2936E cell membrane measured after 16 to 23 hrs by 1450 microbeta trilux scintillation proximity assay; type: cell membranes
Melanocortin receptor 4 [4] = target: T3, Melanocortin receptor 4 (Homo sapiens, UniProt P32245); assay: Displacement of [125I]-NDP-alpha-MSH from human MC4R expressed in HEK2936E cell membrane measured after 16 to 23 hrs by 1450 microbeta trilux scintillation proximity assay; type: cell membranes
Homo sapiens [5] = species: Homo sapiens; assay: Selectivity ratio of Ki for human MC4R to Ki for human MC1R
Melanocortin receptor 3 [6] = target: T2, Melanocortin receptor 3; assay: Agonist activity at human MC3R expressed in HEK2936E cells assessed as cAMP production in presence of IBMX by time resolved fluorescence assay; type: functional, cell-based
[7] = target: T1, Melanocyte-stimulating hormone receptor; assay: Agonist activity at human MC1R expressed in HEK2936E cells assessed as cAMP production in presence of IBMX by time resolved fluorescence assay; type: functional, cell-based; settings: read-out: pEC50 (converted)
Homo sapiens [8] = species: Homo sapiens; assay: Selectivity ratio of EC50 for human MC4R to EC50 for human MC1R
Homo sapiens [9] = species: Homo sapiens; assay: Selectivity ratio of EC50 for human MC3R to EC50 for human MC1R
Melanocortin receptor 4 [10] = target: T3, Melanocortin receptor 4; assay: Agonist activity at human MC4R expressed in HEK2936E cells assessed as cAMP production in presence of IBMX by time resolved fluorescence assay; type: functional, cell-based

T1 sequence (Q01726 whole entry): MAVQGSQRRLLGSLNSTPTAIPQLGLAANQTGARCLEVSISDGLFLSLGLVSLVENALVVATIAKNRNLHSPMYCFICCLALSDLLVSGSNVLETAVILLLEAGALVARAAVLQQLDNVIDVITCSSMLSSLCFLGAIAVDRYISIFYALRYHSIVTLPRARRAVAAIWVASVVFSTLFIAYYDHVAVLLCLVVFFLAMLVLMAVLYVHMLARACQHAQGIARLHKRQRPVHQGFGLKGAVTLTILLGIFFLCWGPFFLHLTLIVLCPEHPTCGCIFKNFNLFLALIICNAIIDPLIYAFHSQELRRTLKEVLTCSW
T3 sequence (P32245 whole entry): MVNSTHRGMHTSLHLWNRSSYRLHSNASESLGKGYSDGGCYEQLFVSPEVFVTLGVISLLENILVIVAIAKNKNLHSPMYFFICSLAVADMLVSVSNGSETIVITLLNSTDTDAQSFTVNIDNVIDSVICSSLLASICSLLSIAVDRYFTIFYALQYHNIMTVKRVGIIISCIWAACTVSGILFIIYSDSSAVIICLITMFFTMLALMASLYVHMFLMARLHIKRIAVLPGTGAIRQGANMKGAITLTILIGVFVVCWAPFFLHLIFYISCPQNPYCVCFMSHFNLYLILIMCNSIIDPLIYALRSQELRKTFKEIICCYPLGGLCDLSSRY
T2 sequence (P41968 whole entry): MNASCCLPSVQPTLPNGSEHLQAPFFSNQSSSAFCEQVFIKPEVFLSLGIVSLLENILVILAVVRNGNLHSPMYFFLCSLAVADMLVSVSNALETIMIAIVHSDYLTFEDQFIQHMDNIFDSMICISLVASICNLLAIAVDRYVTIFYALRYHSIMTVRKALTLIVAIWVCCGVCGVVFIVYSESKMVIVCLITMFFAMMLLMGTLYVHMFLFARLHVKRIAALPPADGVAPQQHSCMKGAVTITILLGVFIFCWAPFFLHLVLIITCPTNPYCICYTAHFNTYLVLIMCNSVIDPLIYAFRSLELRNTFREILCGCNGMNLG

| SMILES | Ki [1] | Ratio Ki (Homo sapiens [2]) | Ki (Melanocortin receptor 3 [3]) | Ki (Melanocortin receptor 4 [4]) | Ratio Ki (Homo sapiens [5]) | EC50 (Melanocortin receptor 3 [6]) | EC50 [7] | Ratio EC50 (Homo sapiens [8]) | Ratio EC50 (Homo sapiens [9]) | EC50 (Melanocortin receptor 4 [10]) |
| --- | --- | --- | --- | --- | --- | --- | --- | --- | --- | --- |
| CCCC[C@@H]1NC(=O)[C@@H]2CSc3nnc(c4c3CCC3C(CC4)C3COC(=O)NCCN)SC[C@H](NC(=O)[C@H](CCCNC(=N)N)NC(=O)[C@H](CC(=O)O)NC(=O)[C@H](Cc3c[nH]c4ccccc34)NC(=O)[C@H](CCCNC(=N)N)NC(=O)[C@H](Cc3ccccc3)NC(=O)[C@H](Cc3cnc[nH]3)NC(=O)CNC1=O)C(=O)N[C@@H](Cc1cnc[nH]1)C(=O)N[C@@H](Cc1ccccc1)C(=O)N[C@@H](CCCNC(=N)N)C(=O)N[C@@H](Cc1c[nH]c3ccccc13)C(=O)N[C@@H](CCCNC(=N)N)C(=O)N2 (some centres not stated) (cyclo(CHFRWRC[Nle]GHFRWDR); linker 1-7 via X8) | < 0.0055 nM | 115 | 0.631 nM | 0.912 nM | 166 |  |  |  |  |  |
| CCCC[C@@H]1NC(=O)[C@@H]2CSc3nnc(c4c3CCC3C(CC4)C3COC(=O)NCCOCCOCCOCCNC(=O)OCC3C4CCc5c6nnc(c5CCC43)SC[C@@H]3NC(=O)[C@H](CCCNC(=N)N)NC(=O)[C@H](CC(=O)O)NC(=O)[C@H](Cc4c[nH]c5ccccc45)NC(=O)[C@H](CCCNC(=N)N)NC(=O)[C@H](Cc4ccccc4)NC(=O)[C@H](Cc4cnc[nH]4)NC(=O)CNC(=O)[C@H](CCCC)NC(=O)[C@H](CS6)NC(=O)[C@H](CCCNC(=N)N)NC(=O)[C@H](Cc4c[nH]c5ccccc45)NC(=O)[C@H](CCCNC(=N)N)NC(=O)[C@H](Cc4ccccc4)NC(=O)[C@H](Cc4cnc[nH]4)NC3=O)SC[C@H](NC(=O)[C@H](CCCNC(=N)N)NC(=O)[C@H](CC(=O)O)NC(=O)[C@H](Cc3c[nH]c4ccccc34)NC(=O)[C@H](CCCNC(=N)N)NC(=O)[C@H](Cc3ccccc3)NC(=O)[C@H](Cc3cnc[nH]3)NC(=O)CNC1=O)C(=O)N[C@@H](Cc1cnc[nH]1)C(=O)N[C@@H](Cc1ccccc1)C(=O)N[C@@H](CCCNC(=N)N)C(=O)N[C@@H](Cc1c[nH]c3ccccc13)C(=O)N[C@@H](CCCNC(=N)N)C(=O)N2 (some centres not stated) | 2.24 nM | 17 | 37.2 nM | 91.2 nM | 41 |  |  |  |  |  |
| CCCC[C@@H]1NC(=O)[C@@H]2CSCc3ccc(cc3)CSC[C@H](NC(=O)[C@H](CCCNC(=N)N)NC(=O)[C@H](CC(=O)O)NC(=O)[C@H](Cc3c[nH]c4ccccc34)NC(=O)[C@H](CCCNC(=N)N)NC(=O)[C@H](Cc3ccccc3)NC(=O)[C@H](Cc3cnc[nH]3)NC(=O)CNC1=O)C(=O)N[C@@H](Cc1cnc[nH]1)C(=O)N[C@@H](Cc1ccccc1)C(=O)N[C@@H](CCCNC(=N)N)C(=O)N[C@@H](Cc1c[nH]c3ccccc13)C(=O)N[C@@H](CCCNC(=N)N)C(=O)N2 (cyclo(CHFRWRC[Nle]GHFRWDR); linker 1-7 via pXylylene) | 0.245 nM |  | 13.8 nM |  |  | 0.331 nM | 0.0891 nM |  |  |  |
| CCCC[C@@H]1NC(=O)[C@@H]2CSCc3ccccc3CSC[C@H](NC(=O)[C@H](CCCNC(=N)N)NC(=O)[C@H](CC(=O)O)NC(=O)[C@H](Cc3c[nH]c4ccccc34)NC(=O)[C@H](CCCNC(=N)N)NC(=O)[C@H](Cc3ccccc3)NC(=O)[C@H](Cc3cnc[nH]3)NC(=O)CNC1=O)C(=O)N[C@@H](Cc1cnc[nH]1)C(=O)N[C@@H](Cc1ccccc1)C(=O)N[C@@H](CCCNC(=N)N)C(=O)N[C@@H](Cc1c[nH]c3ccccc13)C(=O)N[C@@H](CCCNC(=N)N)C(=O)N2 (cyclo(CHFRWRC[Nle]GHFRWDR); linker 1-7 via oXylylene) | 1.58 nM |  | 26.3 nM |  |  | 0.347 nM | 0.195 nM |  |  |  |
| CC[C@H](C)[C@@H]1NC(=O)[C@@H]2CCCN2C(=O)[C@H](Cc2c[nH]c3ccccc23)NC(=O)[C@H](CCCNC(=N)N)N(C)C(=O)[C@H](Cc2ccccc2)NC(=O)[C@H](Cc2cnc[nH]2)NC(=O)[C@H]([C@@H](C)O)NC(=O)[C@@H](NC(C)=O)CSCc2ccccc2CSC[C@@H](C(N)=O)NC1=O (Ac-CTHF[NMeR]WPIC-NH2; linker 1-9 via oXylylene) | 64.6 nM | 191 | 12300 nM | 2140 nM | 33 | 295 nM | 1.86 nM | 212 | 58 | 398 nM |
| CCCC[C@@H]1NC(=O)[C@@H]2CSc3nnc(c4c3CCC3C(CC4)C3COC(=O)NCCNC(=O)CCOCCOCCOCCOCCOCCC(=O)NCCNC(=O)OCC3C4CCc5c6nnc(c5CCC43)SC[C@@H]3NC(=O)[C@H](CCCNC(=N)N)NC(=O)[C@H](CC(=O)O)NC(=O)[C@H](Cc4c[nH]c5ccccc45)NC(=O)[C@H](CCCNC(=N)N)NC(=O)[C@H](Cc4ccccc4)NC(=O)[C@H](Cc4cnc[nH]4)NC(=O)CNC(=O)[C@H](CCCC)NC(=O)[C@H](CS6)NC(=O)[C@H](CCCNC(=N)N)NC(=O)[C@H](Cc4c[nH]c5ccccc45)NC(=O)[C@H](CCCNC(=N)N)NC(=O)[C@H](Cc4ccccc4)NC(=O)[C@H](Cc4cnc[nH]4)NC3=O)SC[C@H](NC(=O)[C@H](CCCNC(=N)N)NC(=O)[C@H](CC(=O)O)NC(=O)[C@H](Cc3c[nH]c4ccccc34)NC(=O)[C@H](CCCNC(=N)N)NC(=O)[C@H](Cc3ccccc3)NC(=O)[C@H](Cc3cnc[nH]3)NC(=O)CNC1=O)C(=O)N[C@@H](Cc1cnc[nH]1)C(=O)N[C@@H](Cc1ccccc1)C(=O)N[C@@H](CCCNC(=N)N)C(=O)N[C@@H](Cc1c[nH]c3ccccc13)C(=O)N[C@@H](CCCNC(=N)N)C(=O)N2 (some centres not stated) | 0.661 nM | 17 | 11.5 nM | 30.9 nM | 47 |  |  |  |  |  |
| CCCC[C@@H]1NC(=O)[C@@H]2CSC/C(=N/OCC(=O)NCCOCCOCCOCCN=[N+]=[N-])CSC[C@H](NC(=O)[C@H](CCCNC(=N)N)NC(=O)[C@H](CC(=O)O)NC(=O)[C@H](Cc3c[nH]c4ccccc34)NC(=O)[C@H](CCCNC(=N)N)NC(=O)[C@H](Cc3ccccc3)NC(=O)[C@H](Cc3cnc[nH]3)NC(=O)CNC1=O)C(=O)N[C@@H](Cc1cnc[nH]1)C(=O)N[C@@H](Cc1ccccc1)C(=O)N[C@@H](CCCNC(=N)N)C(=O)N[C@@H](Cc1c[nH]c3ccccc13)C(=O)N[C@@H](CCCNC(=N)N)C(=O)N2 | 0.389 nM | 14 | 5.5 nM | 30.9 nM | 79 | 0.105 nM | 0.0468 nM | 65 | 2 | 3.02 nM |
| CCCC[C@@H]1NC(=O)[C@@H]2CSCc3cccc(c3)CSC[C@H](NC(=O)[C@H](CCCNC(=N)N)NC(=O)[C@H](CC(=O)O)NC(=O)[C@H](Cc3c[nH]c4ccccc34)NC(=O)[C@H](CCCNC(=N)N)NC(=O)[C@H](Cc3ccccc3)NC(=O)[C@H](Cc3cnc[nH]3)NC(=O)CNC1=O)C(=O)N[C@@H](Cc1cnc[nH]1)C(=O)N[C@@H](Cc1ccccc1)C(=O)N[C@@H](CCCNC(=N)N)C(=O)N[C@@H](Cc1c[nH]c3ccccc13)C(=O)N[C@@H](CCCNC(=N)N)C(=O)N2 (cyclo(CHFRWRC[Nle]GHFRWDR); linker 1-7 via mXylylene) | 0.407 nM |  | 13.5 nM |  |  | 0.309 nM | 0.0871 nM |  |  |  |
| CCCC[C@@H]1NC(=O)[C@@H]2CSc3nnc(c4c3CCC3C(CC4)C3COC(=O)NCCOCCOCCOCCNC(=O)OCC3C4CCc5nnn(CC(=O)N6CCCC[C@H]6C6(O)CN(C(=O)c7ccc(F)c(F)c7Nc7ccc(I)cc7F)C6)c5CCC43)SC[C@H](NC(=O)[C@H](CCCNC(=N)N)NC(=O)[C@H](CC(=O)O)NC(=O)[C@H](Cc3c[nH]c4ccccc34)NC(=O)[C@H](CCCNC(=N)N)NC(=O)[C@H](Cc3ccccc3)NC(=O)[C@H](Cc3cnc[nH]3)NC(=O)CNC1=O)C(=O)N[C@@H](Cc1cnc[nH]1)C(=O)N[C@@H](Cc1ccccc1)C(=O)N[C@@H](CCCNC(=N)N)C(=O)N[C@@H](Cc1c[nH]c3ccccc13)C(=O)N[C@@H](CCCNC(=N)N)C(=O)N2 (some centres not stated) (cyclo(CHFRWRC[Nle]GHFRWDR); linker 1-7 via X9) | 2.14 nM | 24 | 51.3 nM | 170 nM | 79 |  |  |  |  |  |
| CCCC[C@@H]1NC(=O)[C@@H]2CSc3nnc(c4c3CCC3C(CC4)C3COC(=O)NCCOCCOCCNC(=O)CCOCCOCCOCCOCCOCCC(=O)NCCOCCOCCNC(=O)OCC3C4CCc5c6nnc(c5CCC43)SC[C@@H]3NC(=O)[C@H](CCCNC(=N)N)NC(=O)[C@H](CC(=O)O)NC(=O)[C@H](Cc4c[nH]c5ccccc45)NC(=O)[C@H](CCCNC(=N)N)NC(=O)[C@H](Cc4ccccc4)NC(=O)[C@H](Cc4cnc[nH]4)NC(=O)CNC(=O)[C@H](CCCC)NC(=O)[C@H](CS6)NC(=O)[C@H](CCCNC(=N)N)NC(=O)[C@H](Cc4c[nH]c5ccccc45)NC(=O)[C@H](CCCNC(=N)N)NC(=O)[C@H](Cc4ccccc4)NC(=O)[C@H](Cc4cnc[nH]4)NC3=O)SC[C@H](NC(=O)[C@H](CCCNC(=N)N)NC(=O)[C@H](CC(=O)O)NC(=O)[C@H](Cc3c[nH]c4ccccc34)NC(=O)[C@H](CCCNC(=N)N)NC(=O)[C@H](Cc3ccccc3)NC(=O)[C@H](Cc3cnc[nH]3)NC(=O)CNC1=O)C(=O)N[C@@H](Cc1cnc[nH]1)C(=O)N[C@@H](Cc1ccccc1)C(=O)N[C@@H](CCCNC(=N)N)C(=O)N[C@@H](Cc1c[nH]c3ccccc13)C(=O)N[C@@H](CCCNC(=N)N)C(=O)N2 (some centres not stated) | 0.417 nM | 25 | 10.2 nM | 33.1 nM | 79 |  |  |  |  |  |
